The values below come from ChEMBL document CHEMBL1156435, “Evidence for the involvement of carbon-centered radicals in the induction of apoptotic cell death by artemisinin compounds” (J Biol Chem, 2007).

As usually defined, the pIC50 is the IC50 on a negative log10 scale, so that one unit is a factor of ten.

pIC50: −log10 of the molar value. Calls of active or inactive are those of the source. No cut-off for these calls is given here.

The test system of series [1] is HL-60. Put plainly: Cytotoxicity against human HL60 cells after 72 hrs by MTT assay. The class given is functional, cell-based. Conditions: HL-60, 72 h. (In general: Formazan colour is commonly taken as a measure of viable cells.)
The test system of the next series is Jurkat. In words: Cytotoxicity against human Jurkat cells after 72 hrs by MTT assay. The series is classed as functional, cell-based.
The subject of series [2] is PBMC. Put plainly: Cytotoxicity against human PBMC after 72 hrs by MTT assay. The series is classed as cell-based.
Series [3] relates to HL-60. Put plainly: Cytotoxicity against human HL60 cells assessed as LDH release after 72 hrs. The series is classed as functional, cell-based. Conditions: HL-60, 72 h.
Series [4] deals with HL-60. In words: Cytotoxicity against human HL60 cells after 6 hrs by MTT assay. The class given is functional, cell-based. The conditions noted are these: HL-60, 6 h.
Series [5] relates to HL-60. In words: Cytotoxicity against human HL60 cells after 16 hrs by MTT assay. The series is classed as functional, cell-based. The conditions noted are these: HL-60, 16 h.
Series [6] concerns HL-60. Put plainly: Cytotoxicity against human HL60 cells after 24 hrs by MTT assay. The series is classed as functional, cell-based. Conditions: HL-60, 24 h.
Series [7] concerns HL-60. Put plainly: Induction of apoptosis in human HL60 cells assessed as mitochondrial membrane depolarization at 1.0 uM after 12 hrs by flow cytometry. The series is classed as functional. A general note: A flow cytometer gives signals particle by particle.
The subject of series [8] is HL-60. In words: Induction of apoptosis in human HL60 cells assessed as mitochondrial membrane depolarization at 1.0 uM after 24 hrs by flow cytometry. The class given is functional.
The subject of series [9] is PBMC. Put plainly: Induction of apoptosis in human PBMC assessed as mitochondrial membrane depolarization at 0.1 to 100 uM after 24 hrs. The series is classed as functional, cell-based.
In series [10] the test system is HL-60. Put plainly: Induction of apoptosis in human HL60 cells assessed as increase in sub-G0/G1 population at 1 uM after 16 hrs by flow cytometry. The series is classed as functional.
The subject of series [11] is HL-60. In words: Induction of apoptosis in human HL60 cells assessed as increase in sub-G0/G1 population at 1 uM after 24 hrs by flow cytometry. The series is classed as functional.
The test system of series [12] is HL-60. Put plainly: Induction of apoptosis in human HL60 cells assessed as pyknotic nuclear fragments at 10 uM after 24 hrs. The series is classed as functional, cell-based.
Series [13] deals with HL-60. Put plainly: Induction of apoptosis in human HL60 cells assessed as pyknotic nuclear fragments at 10 uM after 24 hrs in presence of Z-VAD-fmk. The series is classed as functional, cell-based.
The subject of series [14] is HL-60. In words: Reversal of induction of apoptosis in human HL60 cells assessed as inhibition of caspase 3 activation at 1 uM after 24 hrs by Western blotting in presence of Z-VAD-fmk. The class given is functional, cell-based. On the technique in general: In western blotting, separated proteins are transferred to a membrane and probed.
Series [15] concerns HL-60. Put plainly: Induction of apoptosis in human HL60 cells assessed as mitochondrial membrane depolarization at 10 uM after 24 hrs by flow cytometry in presence of Z-VAD-fmk. The series is classed as functional, cell-based.
The subject of series [16] is HL-60. In words: Reversal of induction of apoptosis in human HL60 cells assessed as formation of sub-G0/G1 population at 10 uM after 24 hrs by flow cytometry in presence of Z-VAD-fmk. The class given is functional, cell-based.
Series [17] concerns HL-60. Put plainly: Induction of apoptosis in human HL60 cells assessed as activation of caspase 3 by Western blotting. The series is classed as functional, cell-based.
In series [18] the test system is HL-60. Put plainly: Induction of apoptosis in human HL60 cells assessed as activation of caspase 7 by Western blotting. The class given is functional, cell-based.
A short description of series [19]: Stability in human HL60 cells assessed as percentage drug remaining at 10 uM after 16 hrs. The series is classed as ADME, cell-based. The conditions noted are these: HL-60 cells, read-out: Activity.
Series [20] is described as follows: Stability in human HL60 cells assessed as percentage drug remaining at 10 uM after 24 hrs. The series is classed as ADME, cell-based. The conditions noted are these: HL-60 cells, read-out: Activity.
Series [21] relates to HL-60. In words: Stability in human HL60 cells assessed as formation of 10-beta-(p-bromophenoxy)-dihydroartemisinin tetrahydrofuran acetate at 10 uM after 24 hrs. The conditions noted are these: hl-60, 24 h. The series is classed as ADME, cell-based.
Series [22] is described as follows: Stability in human PBMC assessed as percentage drug remaining at 10 uM after 24 hrs. The class given is ADME, cell-based. Conditions: read-out: Activity.

For the molecule `C[C@H]1[C@@H](Oc2ccc(F)cc2)O[C@@H]2O[C@]3(C)CC[C@H]4[C@H](C)CC[C@@H]1[C@@]24OO3`, the pIC50 in the series on HL-60 [1] was 6.27; in the series with Jurkat, 6.64; in the series with PBMC [2], below 3.60; in the series with HL-60 [3], 6.12; in the series on HL-60 [4] it was below 4.00; in the series on HL-60 [5], 5.22. Also, in the series on HL-60 [6], the pIC50 is 6.29. Also, the Activity in the series with HL-60 [7] came to 65.8%; with HL-60 [8] it was 29.8%; with HL-60 [10] it was 24.3%; in the series on HL-60 [11], 62.9%. Besides, the outcome in the series with PBMC [9] and in the series with HL-60 [13] was inactive. Also, the result in the series with HL-60 [12] was Active.

In turn, `COc1cccc2c1C(=O)c1c(O)c3c(c(O)c1C2=O)C[C@@](O)(C(=O)CO)C[C@@H]3O[C@H]1C[C@H](N)[C@H](O)[C@H](C)O1` [DOXORUBICIN] showed a pIC50 in the series with Jurkat of 7.05.

For `C[C@H]1[C@@H](O)O[C@@H]2O[C@@]3(C)CC[C@H]4[C@H](C)CC[C@@H]1[C@@]24OO3` [ARTENIMOL], the figures for the pIC50 with Jurkat, in the series with PBMC [2] and in the series with HL-60 [3] were 6.19, below 3.60 and 5.81, respectively. The Activity in the series on HL-60 [11] is recorded as 60%. Further, the outcome in the series on HL-60 [12], with HL-60 [14], in the series on HL-60 [15] and in the series with HL-60 [16] was Active. Besides, in the series on HL-60 [13], the result was inactive.

`C[C@H]1[C@@H](Oc2ccc(F)cc2)O[C@@H]2O[C@]3(C)CC[C@H]4[C@H](C)CC[C@@H]1[C@@]24O3`: the pIC50 is 4.59 with HL-60 [1]; 4.51 in the series with Jurkat; below 3.60 in the series on PBMC [2]; 4.49 in the series with HL-60 [3]; below 4.00 in the series on HL-60 [4]; 5.42 in the series with HL-60 [5]. The pIC50 in the series with HL-60 [6] was 6.34. The outcome with HL-60 [17] and with HL-60 [18] was inactive.

With `C[C@H]1[C@@H](Oc2ccc(Br)cc2)O[C@@H]2O[C@]3(C)CC[C@H]4[C@H](C)CC[C@@H]1[C@@]24OO3`, the pIC50 in the series on HL-60 [1] was 6.92; in the series on Jurkat it was 6.47; with PBMC [2], below 3.60; in the series with HL-60 [3], 6.14. Also, in [19], the remaining at 16 h, 10 µM was 37%. Besides, the remaining at 24 h, 10 µM in series [20] worked out at 19%; in series [22] it was 64%. The Activity in the series on HL-60 [21] is 7%; with HL-60 [11], 60%.
